Measurements as given in patent US9463338B2, “Derivatives of the sinapinic acid” (PHARMASYNTHESE, priority 2013, dated 2016).
Several values for one entry are separate records, joined by “and”; a condition that tells them apart may be missing. Equal entries are not always repeated. Marks after values point to notes of the source that are not given here.

Assays:
[1] = tested on: normal human dermal fibroblasts; assay: Production of progerin in monolayer cultures of normal human dermal fibroblasts (ELISA); format: cell-based; conditions: for Progerin % DMSO / Progerin Average / Progerin, individual values / Progerin Difference (%): 96 hours; for Progerin Difference (%): vs DMSO; for neo synthesis of progerin: under the retained experimental conditions
Description: In order to study the influence of the compounds of the invention on the concentration of progerin in the cells, the assay method described by C. Verdy, J.-E. Branka and N. Mekideche in <<Quantitative assessment of lactate and progerine production in normal human cutaneous cells during normal ageing: effect of an alaria esculenta extract>>, Int. J. Cosmetic Science, 2011, 1-5, has been used.
(§1) The test system consists of monolayers of adult normal human dermal fibroblasts obtained by cultivating cells collected from a tummy tuck carried out on a person.
Insulin at 10 nM has been used as a reference product in this study. […]
(§2) The compound to be tested is solubilized in 1 mg/ml in DMSO, then diluted in the cells incubation medium, with a constant concentration of 0.1% (v/v) in DMSO.
Upon completion of the incubation period, on the one hand, the progerin has been quantified in the cellular lysates (obtained by ultrasonic action) through a sensitive and specific ELISA assay, and on the other hand, the proteins that are contained in the cellular lysates have been quantified by a spectrophotometric method (Bradford method—Bradford M. (1976) Anal. Biochem., 72, 248-254).
(§3) The statistical significance of the differences that have been observed between the <<Control>> and the <<reference product>> conditions, has been assessed through a Student test. The statistical significance of the differences that have been observed between the <<Check>> and the <<test products>> conditions, has been assessed through a one-way analysis of variance (One Way ANOVA) followed by a Holm-Sidak test (*:p<0.05).

[2] = tested on: normal human dermal fibroblasts; assay: Production of type I pro-collagen in monolayer cultures of normal human dermal fibroblasts (E.I.A.); format: cell-based; conditions: 48 hours; for Procollagen Difference (%): vs DMSO
Description: as §1
The used reference activator is the Transforming Growth Factor β (TGF-β) at 1 ng/ml. […]
as §2
Upon completion of the incubation period, the type I pro-collagen contained in the fibroblasts incubation media has been quantified using a sensitive and specific E.I.A. kit.
Upon completion of the incubation period, the proteins contained in the cellular lysates have been quantified by a spectrophotometric method (Bradford method—Bradford M. (1976) Anal. Biochem., 72, 248-254).
as §3
The results are given in the form of μg of type I pro-collagen per mg of protein (average+/− the standard deviation, S.D.) and are reported in the following Table 5.

normal human melanocytes = assay: Melanin production of normal human melanocytes (conditioned fibroblast media); format: cell-based; conditions: for Melanin/Proteins Difference (%): vs DMSO 0.01%
Description: These experiments allowed to show the capability of the compounds of the invention to modulate the melanin production of normal human melanocytes cultivated in D.K.K. fibroblast monolayers.
Monolayers of normal human dermal fibroblasts have been obtained by cultivating cells collected from a tummy tuck carried out on a person. For carrying out the tests, these cells have been cultivated until obtaining confluent monolayers. Monolayers of normal human melanocytes have been obtained by cultivating cells collected from a tummy tuck carried out on a person. For carrying out the tests, these cells have been cultivated until obtaining non-confluent monolayers. […]
Afterwards, the melanocytes have been incubated for 72 hours at 37° C. in a humid atmosphere with 5% of CO2, in the absence (culture medium alone) or in the presence of kojic acid at 250 μM or of conditioned fibroblast media (see above) diluted to 1/10th in the culture medium of the melanocytes.
The active ingredient has been solubilized in DMSO (Dimethyl Sulfoxide). Afterwards, the dilutions have been carried out in the cells incubation medium with a constant concentration of 0.01% (v/v) of DMSO.
Upon completion of the incubation period, the intracellular melanin content has been quantified in the melanocytic lysates by a spectrophotometric measurement at 405 nm.
Upon completion of the incubation period, the proteins contained in the cellular lysates have been quantified by a spectrophotometric method (Bradford method).
The results are given in the form of μg of intracellular melanin per mg of total proteins of the cellular layer (averages+/− the standard deviation, S.D.).
The statistical significance of the differences observed between the <<Control>> and the <<test product>> conditions, has been assessed through a one-way analysis of variance (One Way ANOVA) followed by a Holm-Sidak test (*:p<0.05).

[3] = tested on: explants of adipose tissues; assay: Slimming effect: glycerol released in culture medium of adipose tissue explants; format: cell-based, human
Description: The activity of the compounds of the invention on the adipocytes has been assessed. To do so, tests have been carried out on explants of adipose tissues that are kept alive according to the following experimental protocol. The products to be tested are introduced in the culture medium. After 9 days of treatment, the activity is assessed through an assay of the glycerol released in the culture medium. In order to be able to compare the potential activity of the molecules, caffeine (Sigma ref C-0750 batch 127F0396), which is known for its activity on the adipocytes (Studlar M. […] The explants are prepared from a tummy tuck ([…]-AB-40) carried out on a donor. 54 explants of tissues have been prepared and kept alive in a medium which is supplemented with penicillin/streptomycin antibiotics (Gibco ref 15140 batch 918578) at 37° C. and with 5% of CO2. The treatment has been carried out, on 3 explants, by incorporating 100 μl of the product (which is in turn at a 2% concentration in the adequate solvent, DMSO) in 2 ml of the culture medium on days J0, J2, J3, J5 and J7. Caffeine has been diluted to the desired concentration in the culture medium on these same days. The control explants have undergone no treatment. On J0, the 3 explants have been collected and frozen at -80° C. On J9, the remaining explants have been collected and preserved under the same conditions. The extraction of lipids from the culture medium has been carried out according to a tested procedure. The assay of the glycerol of the culture medium has been carried out using a glycerol assay kit (Megazyme, K-GROL) in the form of 96-well microplates and reading has been made at 340 nm with a Tecam Infinite M200 microplate reader associated to the Magellan software.

[4] = 10 ng/ml, conditioned fibroblast medium, melanocytes 72 hours
[5] = 50 ng/ml, conditioned fibroblast medium, melanocytes 72 hours
[6] = 100 ng/ml, conditioned fibroblast medium, melanocytes 72 hours

## CCCCCCCCCCCCCCCCOC(=O)/C=C/c1cc(OC)c(OC(C)=O)c(OC)c1 [Compound 4, 4-acetoxy-3,5-dimethoxy cinnamate of n-hexadecyl]
other
  melting point: 82 °C

## COc1cc(COC(=O)/C=C/c2cc(OC)c(OC(C)=O)c(OC)c2)cc(OC)c1OC [Compound 5]
[1]; 10 ng/ml
  Progerin % DMSO: 27.6%
  Progerin Average: 306.4* ng/mg of protein
  Progerin, individual values: 284.0 ng/mg of protein and 243.7 ng/mg of protein and 391.4 ng/mg of protein
  Progerin Difference (%): −72.4%
[1]; 100 ng/ml
  Progerin % DMSO: 29.1%
  Progerin Average: 322.9* ng/mg of protein
  Progerin, individual values: 206.0 ng/mg of protein and 364.1 ng/mg of protein and 398.6 ng/mg of protein
  Progerin Difference (%): −70.9%
[1]; 500 ng/ml
  Progerin % DMSO: 77.9%
  Progerin Average: 865.0 ng/mg of protein
  Progerin, individual values: 916.2 ng/mg of protein and 1021.7 ng/mg of protein and 657.0 ng/mg of protein
  Progerin Difference (%): −22.1%
[1]
  neo synthesis of progerin: significantly decrease
[2]; 10 ng/ml
  Procollagen % DMSO: 75.7%
  Procollagen Average: 39.7* pg/mg of protein
  Procollagen, individual values: 45.3 pg/mg of protein and 37.0 pg/mg of protein and 36.8 pg/mg of protein
  Procollagen Difference (%): −24.3%
[2]; 100 ng/ml
  Procollagen % DMSO: 96.3%
  Procollagen Average: 50.5 pg/mg of protein
  Procollagen, individual values: 53.0 pg/mg of protein and 52.3 pg/mg of protein and 46.3 pg/mg of protein
  Procollagen Difference (%): −3.7%
[2]; 500 ng/ml
  Procollagen % DMSO: 126.9%
  Procollagen Average: 66.6* pg/mg of protein
  Procollagen, individual values: 66.1 pg/mg of protein and 62.3 pg/mg of protein and 71.4 pg/mg of protein
  Procollagen Difference (%): 26.9%
Normal human melanocytes
  synthesis of melanin in the melanocytes: significantly decrease
Normal human melanocytes; 10 ng/ml on fibroblasts 48 hours, conditioned medium 1/10th on melanocytes 72 hours
  Melanin/Proteins, individual values: 14.2 µg/mg and 11.7 µg/mg and 13.7 µg/mg
Normal human melanocytes; [4]
  Melanin/Proteins % DMSO: 83.0%
  Melanin/Proteins Average: 14.3* μg/mg
Normal human melanocytes; 10 ng/ml
  Melanin/Proteins Difference (%): −17.0%
Normal human melanocytes; 50 ng/ml on fibroblasts 48 hours, conditioned medium 1/10th on melanocytes 72 hours
  Melanin/Proteins, individual values: 14.3 μg/mg and 14.7 μg/mg (2×)
Normal human melanocytes; [5]
  Melanin/Proteins % DMSO: 83.6%
  Melanin/Proteins Average: 14.4* μg/mg
Normal human melanocytes; 50 ng/ml
  Melanin/Proteins Difference (%): −16.4%
Normal human melanocytes; 100 ng/ml on fibroblasts 48 hours, conditioned medium 1/10th on melanocytes 72 hours
  Melanin/Proteins, individual values: 15.8 µg/mg and 16.7 µg/mg and 16.0 µg/mg
Normal human melanocytes; [6]
  Melanin/Proteins % DMSO: 93.7%
  Melanin/Proteins Average: 16.2 µg/mg
Normal human melanocytes; 100 ng/ml
  Melanin/Proteins Difference (%): −6.3%
[3]; after 9 days of treatment
  Glycerol % in comparison with caffeine: 82%
  slimming activity in comparison with caffeine: enhanced slimming activity
[3]; glycerol released in culture medium after 9 days, 100 μl of 2% product in DMSO in 2 ml medium on J0, J2, J3, J5, J7, 3 explants
  Glycerol Average: 0.083 mg/mL

## COc1cc(/C=C/C(=O)Oc2coc(CO)cc2=O)cc(OC)c1OC(C)=O [Compound 10]
[1]; 50 ng/ml
  Progerin % DMSO: 23.8%
  Progerin Average: 264.1* ng/mg of protein
  Progerin, individual values: 274.9 ng/mg of protein and 225.1 ng/mg of protein and 292.3 ng/mg of protein
  Progerin Difference (%): −76.2%
[1]; 500 ng/ml
  Progerin % DMSO: 26.1%
  Progerin Average: 289.6* ng/mg of protein
  Progerin, individual values: 301.7 ng/mg of protein and 296.1 ng/mg of protein and 271.0 ng/mg of protein
  Progerin Difference (%): −73.9%
[1]; 5000 ng/ml
  Progerin % DMSO: 26.2%
  Progerin Average: 291.4* ng/mg of protein
  Progerin, individual values: 261.2 ng/mg of protein and 245.9 ng/mg of protein and 366.9 ng/mg of protein
  Progerin Difference (%): −73.8%
[1]
  neo synthesis of progerin: significantly decrease
[2]; 10 ng/ml
  Procollagen % DMSO: 104.6%
  Procollagen Average: 54.9 pg/mg of protein
  Procollagen, individual values: 45.6 pg/mg of protein and 48.7 pg/mg of protein and 70.3 pg/mg of protein
  Procollagen Difference (%): 4.6%
[2]; 100 ng/ml
  Procollagen % DMSO: 150.2%
  Procollagen Average: 78.8* pg/mg of protein
  Procollagen, individual values: 74.0 pg/mg of protein and 75.9 pg/mg of protein and 86.4 pg/mg of protein
  Procollagen Difference (%): 50.2%
[2]; 500 ng/ml
  Procollagen % DMSO: 175.3%
  Procollagen Average: 91.9* pg/mg of protein
  Procollagen, individual values: 90.6 pg/mg of protein and 95.4 pg/mg of protein and 89.8 pg/mg of protein
  Procollagen Difference (%): 75.3%

## O=c1cc(CO)occ1O [Kojic acid, kojic acid, reference compound]
Normal human melanocytes; 250 μM, melanocytes 72 hours
  Melanin/Proteins % control: 86.6* %
  Melanin/Proteins Average: 14.0 µg/mg
  Melanin/Proteins, individual values: 14.3 µg/mg and 13.4 µg/mg and 14.1 µg/mg
